Reference: US4973675A, “Hybrid nitrosoureidoanthracyclines having antitumor activity” (University of Tennessee Research Center, priority 1989, dated 1990)
“And” between values parts separate entries of the source, which are not always exact repeats. Equal entries are not always repeated. “Also recorded” adds a separate entry of the source. Where two headings read alike, the source gives them in different places.

What was measured:
[1] = tested on: murine L1210 lymphocytes; assay: DNA alkaline elution filter assay, DNA damage in murine L1210 lymphocytes; assay type: cell-based
Source text: (§1) By means of the DNA alkaline elution filter assay technique, it is possible to assess the nature of damage induced in DNA by exposure to drugs and other agents. Depending on the assay conditions, DNA lesions can be quantified as direct strand breaks, DNA-DNA interstrand crosslinks, and protein-associated strand breaks and crosslinks. The action of akylating-type drugs on DNA typically results in a predominant formation of direct DNA single-strand breaks and DNA-DNA crosslinks. DNA intercalating agents show a preponderance of protein-associated DNA damage, detectable as protein-associated single-strand breaks and DNA-protein crosslinks.
(§2) The nature of nitrosoureidoanthracycline-induced DNA damage in murine L1210 and human CLL lymphocytes was assessed by means of the alkaline elution filter technique. Murine L1210 leukemic lymphocytes, like P388/S lymphocytes, are known to contain high levels of topoisomerase II.
(§3) *All concentrations 1 μM, 1hr incubation. Each entry represents the
(§4) mean of at least two experiments, frequency per 10^6 nucleotides;
(§5) statistically significant increase above background underlined. DB, direc
(§6) (nonenzymatic) DNA breaks; PAB, proteinassociated DNA cleavage; DDCL,
(§7) interstrand DNA crosslinks; DPCL, DNAprotein crosslinks.

[2] = tested on: DNA topoisomerase II; assay: Drug-stimulated topoisomerase II-mediated DNA cleavage assay (end-labeled PMC41 DNA); assay type: biochemical
Source text: FIGS. 5A and 5B are a photographic reproduction of the results of drug-stimulated topoisomerase II-mediated DNA cleavage assays performed on various compounds, including compounds of the present invention.
DNA intercalation is a necessary but not a sufficient requirement for DNA topoisomerase II-mediated DNA cleavage. Accordingly, determination of drug-induced enzyme inhibition requires direct assay with isolated topoisomerase II. These assays involve determination of drug-enhanced topoisomerase II-mediated cleavage of PMC41 DNA appropriately end-labeled with [α-^32 P]dATP. As better seen in FIG. 5B, lane B, purified topoisomerase II, under the assay conditions, causes fragmentation of the DNA (background cleavage), as indicated by the radioautographic appearance of bands of cleaved DNA having differing mass values.

[3] = tested on: murine L1210 leukemia cells; assay: Clonogenic assay with cultured murine L1210 leukemia cells, 1 h drug exposure (LD90); assay type: cell-based; conditions: Mus musculus, L1210; 1 hr drug exposure; read-out: L1210 LD90 (dose killing 90% of clonogens)
Protocol: (§8) Culture and bioassay conditions were as described in Cancer Chemotherapy Pharmacology 20:277 (1987) "Comparative Effects of Adriamycin and DNA-nonbinding Analogues on DNA, RNA, and Protein Synthesis in Vitro", Israel et al., except that cell counts were determined by hemocytometer rather than by automated cell counting.
+Dose killing 90% of clonogens, 1hr. drug exposure.

[4] = tested on: plasmid PC15 supercoiled DNA; assay: DNA unwinding assay (interference with DNA topoisomerase I-mediated unwinding; drug-DNA intercalation); assay type: biochemical; conditions: for relative strength of drug-DNA intercalation (arbitrary scale): 0 = no intercalation, 9 = very strong intercalation
Source text: DNA unwinding assays were used to measure the ability of a test drug to interfere with DNA topoisomerase I-mediated unwinding of plasmid PC15 supercoiled DNA. DNA topoisomerase I controls the topology of double-stranded DNA and is itself not inhibited by DNA intercalating agents. Rather, intercalating agents cause distortion of the torsional angle between adjacent DNA strand components and thereby interfere with the ability of topoisomerase I to convert supercoiled DNA into relaxed forms. Accordingly, this assay is taken as the definitive test of drug-DNA intercalation.
Drugs were tested at 4 concentrations over a 125-fold concentration range. […] These compounds are 2-chloroethylurea derivatives of daunorubicin and adriamycin, respectively (i.e. not nitrosoureas, but chemical intermediates from which the nitrosoureas were derived).

[5] = tested on: murine P388 leukemia; conditions: this protocol, cited from earlier work
[6] = tested on: human CLL lymphocytes; assay: DNA alkaline elution filter assay, DNA damage in human CLL lymphocytes; assay type: cell-based
Source text: as §1, §2, §3, §4, §5, §6, §7
B-cell type lymphocytes freshly obtained from patients with chronic lymphocytic leukemia (CLL) show undetectable levels of topoisomerase II.

[7] = tested on: murine P388/adriamycin-resistant leukemia; assay: In vivo antitumor activity vs. murine P388/adriamycin-resistant leukemia (P388/ADR); conditions: for increase in life span: P388/ADR in vivo, lack of response confirmed
Source text: (§9) Assays were run essentially according to the established protocols of the U.S. National Cancer Institute (Geran et al., 1972 "Protocols for Screening Chemical Agents and Natural Products Against Animal Tumors and Other Biological Systems" (3rd Ed.), Cancer Chemotherapy Rep. [3]33, 1-103.), with the test agent given at 3-5 incremental dose levels in each screening experiment and with median survival of treated groups referenced against data for untreated controls.
(§10) *B6D2F1 males; 1 × 10^6 tumor cell inoculum ip day 0; treatment

[8] = tested on: human CEM leukemic lymphocytes; assay: Growth inhibition of human CEM leukemic lymphocyte suspension cultures, 48 h continuous drug exposure (ID50); assay type: cell-based; conditions: Homo sapiens, Lymphocyte; suspension culture, 48 hr continuous drug exposure (Table 3); read-out: CEM, ID50 (50% growth-inhibitory concentration)
Protocol: as §8

[9] = tested on: murine P388/adriamycin-resistant leukemia; conditions: Johnson et al. (1976); cited from earlier work
[10] = tested on: murine P388/adriamycin-resistant leukemia; conditions: mouse, in vivo, ip
Source text: as §9, §10

[11] = L1210, 1 μM, 1 hr incubation, 0 hr after treatment
[12] = CLL, 1 μM, 1 hr incubation, 0 hr after treatment

In the case of COc1cccc2c1C(=O)c1c(O)c3c(c(O)c1C2=O)C[C@@](O)(C(=O)CO)C[C@@H]3O[C@H]1C[C@H](N)[C@H](O)[C@H](C)O1 [Adriamycin, adriamycin, reference compound], the “pattern of DNA damage” value ([1]; L1210) is reported as “significant amounts of protein-associated single-strand breaks, without producing much in the way of direct strand breaks and DNA-DNA interstrand cross-links”, the “DB, direct (nonenzymatic) DNA breaks” value [1, 11] is reported as -0.1 frequency per 10^6 nucleotides and the “DD-CL, interstrand DNA crosslinks” value [1, 11] is reported as 0.1 frequency per 10^6 nucleotides. For the same molecule, the “enhancement of topoisomerase II-mediated DNA cleavage” value ([2]; 625-fold concentration range) was “at low concentrations adriamycin enhances DNA fragmentation”, the “concentration at which background cleavage is eliminated” value ([2]; and higher) was ≥ 4.6 μM and ≥ 2.5 μg/ml and the IC90 [3] was 310 nM. The “relative strength of drug-DNA intercalation (arbitrary scale)” value [4] was 7, the “interference with topoisomerase I-mediated conversion of supercoiled DNA / intercalation” value ([4]; 4 concentrations, 125-fold range) was “concentration-dependent ability to interfere with the conversion of supercoiled DNA to relaxed forms; also recorded: ability of increasing concentrations of adriamycin (positive control) to interfere with the conversion of supercoiled DNA to relaxed forms” and the “longterm survivors, historical results” value ([5]; optimal dose 3.0 mg/kg) was “infrequent longterm survivors”. For the same molecule, the “pattern of DNA damage” value ([6]; CLL B-cell lymphocytes) was “cannot be detected in these cells to any significant level”, the “DB, direct (nonenzymatic) DNA breaks” value [6, 12] was 0.1 frequency per 10^6 nucleotides and the “DD-CL, interstrand DNA crosslinks” value [6, 12] was 0.0 frequency per 10^6 nucleotides. The “DP-CL, DNA-protein crosslinks” value [6, 12] was 0.1 frequency per 10^6 nucleotides, the “PAB, protein-associated DNA cleavage” value [6, 12] was 0.1 frequency per 10^6 nucleotides and the “increase in life span” value [7] was 0%. The IC50 [8] was 55 nM and the “in vivo sensitivity of P388/ADR” value [9] was “insensitive to adriamycin in vivo”.

In the case of COc1cccc2c1C(=O)c1c(O)c3c(c(O)c1C2=O)C[C@@](O)(C(C)=O)C[C@@H]3O[C@H]1C[C@H](N)[C@H](O)[C@H](C)O1 [Daunorubicin, daunorubicin], the IC90 [3] is reported as 900 nM, the “relative strength of drug-DNA intercalation (arbitrary scale)” value [4] is reported as 7 and the “Net mean percent weight change, day 7” value ([10]; 2 mg/kg) is reported as -0.5%. The “Net mean percent weight change, day 7” value ([10]; 3 mg/kg) was -7%, the “Net mean percent weight change, day 7” value ([10]; 4 mg/kg) was -7% and the “Net mean percent weight change, day 7” value ([10]; 12 mg/kg) was -13%. The “Net mean percent weight change, day 7” value ([10]; 15 mg/kg) was -13%, the “Net mean percent weight change, day 7” value ([10]; 18 mg/kg) was -28% and the “ILS, historical results” value ([5]; optimal dose 2.0 mg/kg) was “+75 - +100%”. For the same molecule, the “longterm survivors, historical results” value ([5]; optimal dose 2.0 mg/kg) was “no longterm survivors”, the “toxicity flag” value ([7]; 18.0 mg/kg, d1 only) was “Toxic” and the “increase in life span” value [7] was 0%. For the same molecule, the Long-term survivors ([7]; ip, 1.0 mg/kg qd 1-4) was 0/6, the “Median increase in lifespan” value ([7]; ip, 1.0 mg/kg qd 1-4) was “+9%” and the Median survival ([7]; ip, 1.0 mg/kg qd 1-4) was 12 days. For the same molecule, the “Net mean percent weight change, day 7” value ([7]; ip, 1.0 mg/kg qd 1-4) was “+20%”, the “Range of death (dying animals)” value ([7]; ip, 1.0 mg/kg qd 1-4) was 11 to 12 days and the Long-term survivors ([7]; ip, 2.0 mg/kg qd 1-4) was 0/7. For the same molecule, the “Median increase in lifespan” value ([7]; ip, 2.0 mg/kg qd 1-4) was 0%, the Median survival ([7]; ip, 2.0 mg/kg qd 1-4) was 11 days and the “Range of death (dying animals)” value ([7]; ip, 2.0 mg/kg qd 1-4) was 11 to 12 days. For the same molecule, the Long-term survivors ([7]; ip, 3.0 mg/kg qd 1-4) was 0/7, the “Median increase in lifespan” value ([7]; ip, 3.0 mg/kg qd 1-4) was 0% and the Median survival ([7]; ip, 3.0 mg/kg qd 1-4) was 11 days. The “Range of death (dying animals)” value ([7]; ip, 3.0 mg/kg qd 1-4) was 10 to 12 days, the Long-term survivors ([7]; ip, 4.0 mg/kg qd 1-4) was 0/7 and the “Median increase in lifespan” value ([7]; ip, 4.0 mg/kg qd 1-4) was -9%. The Median survival ([7]; ip, 4.0 mg/kg qd 1-4) was 10 days, the “Range of death (dying animals)” value ([7]; ip, 4.0 mg/kg qd 1-4) was 9 to 12 days and the Long-term survivors ([7]; ip, 12.0 mg/kg d1 only) was 0/7. For the same molecule, the “Median increase in lifespan” value ([7]; ip, 12.0 mg/kg d1 only) was 0%, the Median survival ([7]; ip, 12.0 mg/kg d1 only) was 10 days and the “Range of death (dying animals)” value ([7]; ip, 12.0 mg/kg d1 only) was 9 to 11 days. For the same molecule, the Long-term survivors ([7]; ip, 15.0 mg/kg d1 only) was 0/7, the “Median increase in lifespan” value ([7]; ip, 15.0 mg/kg d1 only) was 0% and the Median survival ([7]; ip, 15.0 mg/kg d1 only) was 10 days. For the same molecule, the “Range of death (dying animals)” value ([7]; ip, 15.0 mg/kg d1 only) was 8 to 11 days, the Long-term survivors ([7]; ip, 18.0 mg/kg d1 only) was 0/7 and the Median survival ([7]; ip, 18.0 mg/kg d1 only) was 8 days. The “Range of death (dying animals)” value ([7]; ip, 18.0 mg/kg d1 only) was 6 to 9 days, the “Median increase in lifespan” value ([7]; ip, 18.0 mg/kg d1 only, ** Toxic) was -20% and the IC50 [8] was 30 nM. The “in vivo sensitivity of P388/ADR” value [9] was “cross-resistant to daunorubicin”.
